In patent US20030170176A1, “Individualization of therapy with antipsychotics” (McGill University, priority 2001, published 2003):

Test system: AAMU-Ab
Test: Competitive antigen ELISA, cross-reactivity of AAMU-Ab
Type: binding, rabbit
Conditions: 0 = absence of inhibition or inhibition no higher than 40% at highest concentration tested (5 × 10^−3 M)
Experimental: Competitive Antigen ELISA
Buffers and water without additives are filtered through millipore filters and kept for 1 week. BSA, antibodies, Tween™ 20 and horse radish peroxidase conjugates are added to these buffers and water just prior to use. Urine samples are usually collected 4 hours after drinking a cup of coffee (instant or brewed with approximately 100 mg of caffeine per cup) and stored at −80° C. The urine samples are diluted 10 times with sodium phosphate buffer (620 mosm, pH 7.50) and are subsequently diluted with water to give concentrations of AAMU and 1× no higher than 3×10^−6 M in the ELISA. All the pipettings are done with an eight-channel pipette, except those of the antibody and sample solutions. Starting with the last well, 100 μL of a carbonate buffer (100 mM, pH 9.6) containing 2.5 μg mL^−1 antibodies are added to each well. After 90 min. at room temperature, the wells are washed three times with […] of TPB: isotonic sodium phosphate buffer (310 mosm, pH 7.50) containing 0.05% Tween™ 20.
After the initial wash, unoccupied sites are blocked by incubation for 90 min. at room temperature with 100 μL TBP containing 3% BSA. The wells are washed four times with 100 μL TPB. […] The microplate is gently shaken with an orbital shaker at room temperature for 3-4 hours. […]

SMILES: O=c1[nH]c(=O)c2[nH]cnc2[nH]1 [Xanthine]
- % Cross-Reaction AAMU-Ab: 0a %
